Test results published in US11591336B2 (Relay Therapeutics, Inc., priority 2017, dated 2023).
Where a name gives a salt, the structure may show the parent alone.

What follows are compounds tested against SHP2 (Homo sapiens (Human), UniProt Q06124) (assay: SHP2 Allosteric Inhibition Assay (DiFMUP prompt fluorescence)). Details: 0.25 nM SHP2 activated with 0.5 μM peptide IRS1_pY1172(dPEG8)pY1222; substrate DiFMUP 100 μM; 25° C.
Type: biochemical

SHP2, sequence (Q06124 whole entry): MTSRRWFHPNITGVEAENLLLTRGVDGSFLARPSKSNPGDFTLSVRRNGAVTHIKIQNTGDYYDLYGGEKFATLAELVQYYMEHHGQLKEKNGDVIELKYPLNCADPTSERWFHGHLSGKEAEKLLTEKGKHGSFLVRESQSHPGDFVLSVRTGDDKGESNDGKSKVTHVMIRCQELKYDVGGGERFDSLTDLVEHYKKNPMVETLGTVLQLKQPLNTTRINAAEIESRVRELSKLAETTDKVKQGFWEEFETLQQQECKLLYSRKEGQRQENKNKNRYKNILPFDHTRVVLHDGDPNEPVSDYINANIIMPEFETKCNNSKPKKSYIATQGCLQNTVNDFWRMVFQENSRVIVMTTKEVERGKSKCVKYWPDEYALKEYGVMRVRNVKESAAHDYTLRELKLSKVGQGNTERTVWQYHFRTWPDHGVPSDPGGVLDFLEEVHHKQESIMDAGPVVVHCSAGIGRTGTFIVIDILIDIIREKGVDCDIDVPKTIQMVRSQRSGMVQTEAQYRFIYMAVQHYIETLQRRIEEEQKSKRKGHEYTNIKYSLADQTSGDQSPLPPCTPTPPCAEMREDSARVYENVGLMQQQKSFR

**Q.** `C[C@@H]1OCC2(CCN(c3cnc4c(N5CCCc6nc(-c7ccn(C)n7)ccc65)n[nH]c4n3)CC2)[C@@H]1N` [Compound 280, (3S,4S)-3-methyl-8-{3-[6-(1-methyl-1H-pyrazol-3-yl)-1,2,3,4-tetrahydro-1,5-naphthyridin-1-yl]-1H-pyrazolo[3,4-b]pyrazin-6-yl}-2-oxa-8-azaspiro[4.5]decan-4-amine] was tested. Which IC50 did it give?
**A.** < 1000 nM

**Q.** With `C[C@@H]1OCC2(CCN(c3cnc4c(N5CCCc6c5cccc6S(C)(=O)=O)n[nH]c4n3)CC2)[C@@H]1N` [Compound 281, (3S,4S)-8-[3-(5-methanesulfonyl-1,2,3,4-tetrahydroquinolin-1-yl)-1H-pyrazolo[3,4-b]pyrazin-6-yl]-3-methyl-2-oxa-8-azaspiro[4.5]decan-4-amine] as the compound, how does the IC50 read?
**A.** < 1000 nM

**Q.** With `CNC(=O)c1ccc2c(n1)CCCN2c1n[nH]c2nc(N3CCC4(CC3)CO[C@@H](C)[C@H]4N)cnc12` [Compound 282, 5-(6-((3S,4S)-4-amino-3-methyl-2-oxa-8-azaspiro[4.5]decan-8-yl)-1H-pyrazolo[3,4-b]pyrazin-3-yl)-N-methyl-5,6,7,8-tetrahydro-1,5-naphthyridine-2-carboxamide] as the compound, how does the IC50 read?
**A.** < 1000 nM

**Q.** For `C[C@@H]1OCC2(CCN(c3cnc4c(N5CCC(C(F)F)c6cc(C#N)ccc65)n[nH]c4n3)CC2)[C@@H]1N` (stereo partly drawn) [Compound 283], which IC50 is on record?
**A.** < 1000 nM

**Q.** `C[C@@H]1OCC2(CCN(c3cnc4c(N5CC[C@H](C)c6nc(-c7cnn(C)c7)ccc65)n[nH]c4n3)CC2)[C@@H]1N` [Compound 284, (3S,4S)-3-methyl-8-{3-[(4S)-4-methyl-6-(1-methyl-1H-pyrazol-4-yl)-1,2,3,4-tetrahydro-1,5-naphthyridin-1-yl]-1H-pyrazolo[3,4-b]pyrazin-6-yl}-2-oxa-8-azaspiro[4.5]decan-4-amine] was tested. Which IC50 did it give?
**A.** < 1000 nM

**Q.** With `C[C@@H]1OCC2(CCN(c3cnc4c(N5CCc6ccc(C#N)cc6C5)n[nH]c4n3)CC2)[C@@H]1N` [Compound 286] as the compound, how does the IC50 read?
**A.** < 1000 nM

**Q.** Which IC50 does the source give for `CNC(=O)c1ccc2c(c1)[C@@H](C)CCN2c1n[nH]c2nc(N3CCC4(CC3)CO[C@@H](C)[C@H]4N)cnc12` [Compound 288, (4S)-1-{6-[(3S,4S)-4-amino-3-methyl-2-oxa-8-azaspiro[4.5]decan-8-yl]-1H-pyrazolo[3,4-b]pyrazin-3-yl}-N,4-dimethyl-1,2,3,4-tetrahydroquinoline-6-carboxamide] here?
**A.** < 1000 nM

**Q.** Which IC50 does the source give for `C[C@@H]1OCC2(CCN(c3cnc4c(N5CCCc6c5ccnc6-c5cn[nH]c5)n[nH]c4n3)CC2)[C@@H]1N` [Compound 289] here?
**A.** < 1000 nM

**Q.** Which IC50 does the source give for `Cn1cc(-c2ccc3c(n2)CCCN3c2n[nH]c3nc(N4CCC5(CC4)COC[C@H]5N)cnc23)cn1` [Compound 290] here?
**A.** < 1000 nM

**Q.** How did the IC50 turn out when `C[C@@H]1OCC2(CCN(c3cnc4c(N5CCc6cnccc6C5)n[nH]c4n3)CC2)[C@@H]1N` [Compound 291] was run?
**A.** < 1000 nM

**Q.** With `Cc1ccc2c(n1)CCCN2c1n[nH]c2nc(N3CCC4(CC3)CO[C@@H](C)[C@H]4N)cnc12` [Compound 292] as the compound, how does the IC50 read?
**A.** < 1000 nM

**Q.** How did the IC50 turn out when `C[C@@H]1OCC2(CCN(c3cnc4c(N5CCCc6nc(-c7ncco7)ccc65)n[nH]c4n3)CC2)[C@@H]1N` [Compound 295, (3S,4S)-3-methyl-8-(3-(6-(oxazol-2-yl)-3,4-dihydro-1,5-naphthyridin-1(2H)-yl)-1H-pyrazolo[3,4-b]pyrazin-6-yl)-2-oxa-8-azaspiro[4.5]decan-4-amine] was run?
**A.** < 1000 nM

**Q.** Which IC50 does the source give for `C[C@@H]1OCC2(CCN(c3cnc4c(N5CCNc6nc(-c7cnn(C)c7)ccc65)n[nH]c4n3)CC2)[C@@H]1N` [Compound 296, (3S,4S)-3-methyl-8-(3-(6-(1-methyl-1H-pyrazol-4-yl)-3,4-dihydropyrido[2,3-b]pyrazin-1(2H)-yl)-1H-pyrazolo[3,4-b]pyrazin-6-yl)-2-oxa-8-azaspiro[4.5]decan-4-amine] here?
**A.** < 1000 nM

**Q.** With `C[C@@H]1OCC2(CCN(c3cnc4c(N5CCCc6nc(C(F)F)ccc65)n[nH]c4n3)CC2)[C@@H]1N` [Compound 297] as the compound, how does the IC50 read?
**A.** < 1000 nM

**Q.** How did the IC50 turn out when `Cn1cc(-c2ccc3c(n2)CCCN3c2n[nH]c3nc(N4CCC5(CCC[C@H]5N)CC4)cnc23)cn1` [Compound 298, (R)-8-(3-(6-(1-methyl-1H-pyrazol-4-yl)-3,4-dihydro-1,5-naphthyridin-1(2H)-yl)-1H-pyrazolo[3,4-b]pyrazin-6-yl)-8-azaspiro[4.5]decan-1-amine] was run?
**A.** < 1000 nM

**Q.** `C[C@H]1CCN(c2n[nH]c3nc(N4CCC5(CC4)COC[C@H]5N)cnc23)c2ccc(-c3ncon3)cc21` [Compound 299, (4S)-8-{3-[(4S)-4-methyl-6-(1,2,4-oxadiazol-3-yl)-1,2,3,4-tetrahydroquinolin-1-yl]-1H-pyrazolo[3,4-b]pyrazin-6-yl}-2-oxa-8-azaspiro[4.5]decan-4-amine] was tested. Which IC50 did it give?
**A.** < 1000 nM

**Q.** With `C[C@@H]1OCC2(CCN(c3cnc4c(N5CCN(C)c6ncccc65)n[nH]c4n3)CC2)[C@@H]1N` [Compound 301] as the compound, how does the IC50 read?
**A.** < 1000 nM

**Q.** `CC(=O)N1CCN(c2n[nH]c3nc(N4CCC5(CC4)CO[C@@H](C)[C@H]5N)cnc23)c2ccc(C#N)cc21` [Compound 302] was tested. Which IC50 did it give?
**A.** < 1000 nM

**Q.** How did the IC50 turn out when `C[C@@H]1OCC2(CCN(c3cnc4c(N5CCCc6c5ccnc6-c5ccnn5C)n[nH]c4n3)CC2)[C@@H]1N` [Compound 303] was run?
**A.** < 1000 nM

**Q.** `C[C@@H]1OCC2(CCN(c3cnc4c(N5CCCc6nc(-c7cncnc7)ccc65)n[nH]c4n3)CC2)[C@@H]1N` [Compound 304] was tested. Which IC50 did it give?
**A.** < 1000 nM

**Q.** How did the IC50 turn out when `C[C@@H]1OCC2(CCN(c3cnc4c(N5CCCc6nc(-c7ccnnc7)ccc65)n[nH]c4n3)CC2)[C@@H]1N` [Compound 305] was run?
**A.** < 1000 nM

**Q.** With `CC(=O)NCc1ccc2c(n1)CCCN2c1n[nH]c2nc(N3CCC4(CC3)CO[C@@H](C)[C@H]4N)cnc12` [Compound 306, N-[(5-{6-[(3S,4S)-4-amino-3-methyl-2-oxa-8-azaspiro[4.5]decan-8-yl]-1H-pyrazolo[3,4-b]pyrazin-3-yl}-5,6,7,8-tetrahydro-1,5-naphthyridin-2-yl)methyl]acetamide dihydrochloride] as the compound, how does the IC50 read?
**A.** < 1000 nM

**Q.** Which IC50 does the source give for `C[C@@H]1OCC2(CCN(c3cnc4c(N5CCCc6c5ccnc6N5CCOCC5)n[nH]c4n3)CC2)[C@@H]1N` [Compound 307] here?
**A.** < 1000 nM

**Q.** Which IC50 does the source give for `C[C@@H]1OCC2(CCN(c3cnc4c(N5CCCc6nc(-n7cnnc7)ccc65)n[nH]c4n3)CC2)[C@@H]1N` [Compound 308] here?
**A.** < 1000 nM

**Q.** Which IC50 does the source give for `C[C@@H]1OCC2(CCN(c3cnc4c(N5CCCc6nc(C7CCOC7)ccc65)n[nH]c4n3)CC2)[C@@H]1N` (stereo partly drawn) [Compound 309, (3S,4S)-3-methyl-8-(3-(6-(tetrahydrofuran-3-yl)-3,4-dihydro-1,5-naphthyridin-1(2H)-yl)-1H-pyrazolo[3,4-b]pyrazin-6-yl)-2-oxa-8-azaspiro[4.5]decan-4-amine] here?
**A.** < 1000 nM

**Q.** `C[C@@H]1OCC2(CCN(c3cnc4c(N5CCN(C)c6nc(-c7cnn(C)c7)ccc65)n[nH]c4n3)CC2)[C@@H]1N` [Compound 310, (3S,4S)-3-methyl-8-(3-(4-methyl-6-(1-methyl-1H-pyrazol-4-yl)-3,4-dihydropyrido[2,3-b]pyrazin-1(2H)-yl)-1H-pyrazolo[3,4-b]pyrazin-6-yl)-2-oxa-8-azaspiro[4.5]decan-4-amine] was tested. Which IC50 did it give?
**A.** < 1000 nM

**Q.** With `CCCn1cc(-c2ccc3c(n2)CCCN3c2n[nH]c3nc(N4CCC5(CC4)CO[C@@H](C)[C@H]5N)cnc23)cn1` [Compound 311, (3S,4S)-3-methyl-8-{3-[6-(1-propyl-1H-pyrazol-4-yl)-1,2,3,4-tetrahydro-1,5-naphthyridin-1-yl]-1H-pyrazolo[3,4-b]pyrazin-6-yl}-2-oxa-8-azaspiro[4.5]decan-4-amine] as the compound, how does the IC50 read?
**A.** < 1000 nM

**Q.** With `CC(C)n1cc(-c2ccc3c(n2)CCCN3c2n[nH]c3nc(N4CCC5(CC4)CO[C@@H](C)[C@H]5N)cnc23)cn1` [Compound 312, (3S,4S)-8-(3-(6-(1-isopropyl-1H-pyrazol-4-yl)-3,4-dihydro-1,5-naphthyridin-1(2H)-yl)-1H-pyrazolo[3,4-b]pyrazin-6-yl)-3-methyl-2-oxa-8-azaspiro[4.5]decan-4-amine] as the compound, how does the IC50 read?
**A.** < 1000 nM

**Q.** With `CNC(=O)N1CCN(c2n[nH]c3nc(N4CCC5(CC4)CO[C@@H](C)[C@H]5N)cnc23)c2ncccc21` [Compound 313, 4-{6-[(3S,4S)-4-amino-3-methyl-2-oxa-8-azaspiro[4.5]decan-8-yl]-1H-pyrazolo[3,4-b]pyrazin-3-yl}-N-methyl-1H,2H,3H,4H-pyrido[2,3-b]pyrazine-1-carboxamide] as the compound, how does the IC50 read?
**A.** 1000 to 10000 nM

**Q.** Which IC50 does the source give for `C[C@@H]1OCC2(CCN(c3cnc4c(N5CCCc6nc(Oc7cnn(C)c7)ccc65)n[nH]c4n3)CC2)[C@@H]1N` [Compound 314] here?
**A.** < 1000 nM

**Q.** `COc1ccc2c(n1)CCCN2c1n[nH]c2nc(N3CCC4(CC3)CO[C@@H](C)[C@H]4N)cnc12` [Compound 315] was tested. Which IC50 did it give?
**A.** < 1000 nM

**Q.** `C[C@@H]1OCC2(CCN(c3cnc4c(N5CCNc6cc(-c7cnn(C)c7)ccc65)n[nH]c4n3)CC2)[C@@H]1N` [Compound 316, (3S,4S)-3-methyl-8-{3-[6-(1-methyl-1H-pyrazol-4-yl)-1,2,3,4-tetrahydroquinoxalin-1-yl]-1H-pyrazolo[3,4-b]pyrazin-6-yl}-2-oxa-8-azaspiro[4.5]decan-4-amine] was tested. Which IC50 did it give?
**A.** < 1000 nM

**Q.** With `C[C@@H]1OCC2(CCN(c3cnc4c(N5CCCc6nc(-c7cnn(C(F)F)c7)ccc65)n[nH]c4n3)CC2)[C@@H]1N` [Compound 317] as the compound, how does the IC50 read?
**A.** < 1000 nM

**Q.** Which IC50 does the source give for `C[C@@H]1OCC2(CCN(c3cnc4c(N5CCCc6nc(-c7cnco7)ccc65)n[nH]c4n3)CC2)[C@@H]1N` [Compound 318] here?
**A.** < 1000 nM

**Q.** Which IC50 does the source give for `Cc1nc(-c2ccc3c(n2)CCCN3c2n[nH]c3nc(N4CCC5(CC4)CO[C@@H](C)[C@H]5N)cnc23)no1` [Compound 319, (3S,4S)-3-methyl-8-(3-[6-(5-methyl-1,2,4-oxadiazol-3-yl)-1,2,3,4-tetrahydro-1,5-naphthyridin-1-yl]-1H-pyrazolo[3,4-b]pyrazin-6-yl)-2-oxa-8-azaspiro[4.5]decan-4-amine; formic acid] here?
**A.** < 1000 nM

**Q.** Which IC50 does the source give for `CCc1nc(-c2ccc3c(n2)CCCN3c2n[nH]c3nc(N4CCC5(CC4)CO[C@@H](C)[C@H]5N)cnc23)no1` [Compound 320, (3S,4S)-8-{3-[6-(5-ethyl-1,2,4-oxadiazol-3-yl)-1,2,3,4-tetrahydro-1,5-naphthyridin-1-yl]-1H-pyrazolo[3,4-b]pyrazin-6-yl}-3-methyl-2-oxa-8-azaspiro[4.5]decan-4-amine; formic acid] here?
**A.** < 1000 nM
